Test results from PMC12567082, “Silver(I) Complexes Bearing S-Alkyl Thiosalicylic Acid Derivatives: DNA/BSA Binding and Antitumor Activity In Vitro and In Vivo” (Pharmaceutics, 2025).

Key:
CT-DNA = assay: UV-Vis absorption titration with CT-DNA; assay type: binding, calf; conditions: ΔG = −RT lnKb
Protocol: All DNA-binding studies were conducted in 0.01 M phosphate-buffered saline (PBS, pH 7.40) at 25 °C. […] To eliminate absorbance from CT-DNA, identical amounts of DNA were added to both the test and reference solutions prior to spectral recording.
Intrinsic binding constants (Kb) were calculated using the equation to determine the DNA-binding affinities of the complexes (1):[DNA]/(εa − εf) = [DNA]/(εb − εf) + 1 [Kb(εb − εf)](1)
[DNA] represents the concentration of DNA; apparent extinction coefficient, εa, was calculated as the ratio of the observed absorbance to the concentration of the complex (Aobs/[complex]); and εb and εf correspond to the extinction coefficients of the complex in the fully bound and free forms, respectively. Kb was determined from the ratio of the slope to the intercept obtained from the corresponding linear plots.

[1] = tested on: human breast cancer (MDA-MB-468); assay: MTT assay MDA-MB-468; assay type: cell-based
Protocol: (§1) Mouse breast cancer (4T1), human breast cancer (MDA-MB-468), mouse colon cancer (CT26), human colon cancer (HCT-116), mouse lung cancer (LLC1), human lung cancer (A549), mouse mesenchymal stem cells (mMSC), and human fibroblast cell lines (MRC-5) were used in this study and were consistently cultured in complete Dulbecco’s Modified Eagle Medium (DMEM) (Sigma-Aldrich, St. Louis, MO, USA) in incubator (5% CO2) under standard conditions. Complete DMEM was Dulbecco’s Modified Eagle Medium supplemented with 10% fetal bovine serum (FBS), 1 mmol/L penicillin–streptomycin, 1 mmol/L mixed nonessential amino acids, and 2 mmol/L L-glutamine (Sigma-Aldrich, St. Louis, MO, USA). All cancer cell lines and MRC-5 cell line were obtained from American Type Culture Collection (ATCC, Manassas, VA, USA), but mMSC was manufactured by Gibco (Middlesex County, MA, USA).
(§2) In 96-well microplates, we seeded cancer and non-cancer cells, more exactly 5 × 10^3 cells per well in 100 μL of complete DMEM (Sigma-Aldrich, St. Louis, MO, USA). […] Tested concentration range for all metal-based substances was 3.9–500 μM. After incubation with MTT solution (5 mg/mL; pH 7.2) for 4 h, optical density was determined using Zenyth 3100 microplate multimode detector (Salzburg, Austria). All experiments were performed three times, each in triplicate, and the IC50 values as well as selectivity indexes (IC50 for mMSC or MRC-5/IC50 for mouse or human cancer cells) were calculated.

mouse lung cancer (LLC1) = assay: MTT assay LLC1; assay type: cell-based
Protocol: as §1, §2

human lung cancer (A549) = assay: MTT assay A549; assay type: cell-based
Protocol: as §1, §2

[2] = tested on: mouse mesenchymal stem cells (mMSC); assay: MTT assay mMSC; assay type: cell-based; conditions: 48 h
Protocol: as §1, §2

4T1 mammary tumors = assay: Breast cancer development in vivo (orthotopic 4T1); set-up: species or system BALB/C female mice; conditions: five single doses every third day, after day 18
Protocol: Ethics Committee of the Faculty of Medical Sciences of the University of Kragujevac, Serbia, approved all experiments (01-5301/11). ARRIVE guidelines and EU Directive 2010/63/EU for animal experiments were followed. Experimental animals, BALB/C female mice (8–10 weeks old), were housed under standard conditions (temperature-controlled environment, a 12 h light–dark cycle, fed ad libitum, and observed daily) throughout whole duration of experiment. Animals were inoculated with 4T1 cells (3 × 10^4) into the fourth mammary fat pad as previously described. Animals were randomly assigned to experimental or control groups, and after palpable tumors were detected, the pharmacological treatments were started. Female BALB/C mice intraperitoneally received either C3 (3 mg/kg), C3 (6 mg/kg), CDDP (6 mg/kg), or vehicle in distilled water with 0.05% DMSO (Sigma-Aldrich, St. Louis, MO, USA) (untreated group) in five single doses every third day (8 animals per group). Using electronic calipers (Moore and Wright, Sheffield, UK), the sizes of primary 4T1 mammary tumors were morphometrically evaluated. On the 30th day of experiment, animals were sacrificed, blood was collected (for determination of serum levels of ALT, AST, urea, and creatinine), and tissue sections (liver and kidney) were stained with H&E for further analysis. Liver or kidney sections were analyzed by two observers, and the injury levels were determined as previously reported.

4T1 cells [3] = assay: Colony formation assay; assay type: cell-based, mouse; conditions: 0.5 µM, 14 days
Protocol: Cancer 4T1 cells were seeded in a six-well plate (500 cells per well) and incubated with C3 (0.5 µM) or DMEM only for 14 days. After fixation, the colonies were stained using crystal violet.

4T1 cells [4] = assay: Analysis of cell death (Annexin V/PI) in 4T1; assay type: cell-based, mouse; conditions: 0.5 µM, 24 h, vs untreated
Protocol: 4T1 cells were treated with 0.5 µM of C3 or grown in DMEM only (control 4T1 cells) for 24 h and stained with Annexin-V-FITC and propidium iodide (PI) (BD Pharmingen, San Diego, CA, USA) as previously described. Quantification of cellular death was measured using FACSCalibur Flow Cytometer (BD Biosciences, San Jose, CA, USA) and FlowJo software (version 10.7.2; Tree Star Inc. Ashland, OR, USA).

4T1 cells [5] = assay: Mitochondrial membrane potential and ROS levels; assay type: cell-based, mouse; conditions: 0.5 µM
Protocol: After 24 h of C3 treatment, 4T1 cells were stained with appropriate dyes, followed by flow cytometry analysis using FACS Calibur Flow Cytometer (BD Biosciences, San Jose, CA, USA). Mitochondrial membrane potential stained by Rhodamine-123 (Sigma-Aldrich, St. Louis, MO, USA), TMRE (Abcam, Cambridge, UK), and cellular ROS levels were stained by DC-FHDA (Sigma-Aldrich, St. Louis, MO, USA).

CCCSc1ccccc1C(=O)[O][Ag].CCCSc1ccccc1C(=O)[O][Ag] [C3, [Ag2(S-propyl-thiosal)2]]
ΔG (Gibbs free energy) (CT-DNA): -7.29 kcal/mol
IC50 ([1]; MDA-MB-468, 24 h): 15.5 ± 1.21 µM
Selectivity Index (IC50 mMSC or MRC-5/ IC50 Cancer Cell) ([1]; MDA-MB-468, 24 h): 2.46
IC50 ([1]; MDA-MB-468, 48 h): 8.76 ± 1.24 µM
Selectivity Index (IC50 mMSC or MRC-5/ IC50 Cancer Cell) ([1]; MDA-MB-468, 48 h): 4.95
IC50 (mouse lung cancer (LLC1); LLC1, 24 h): 41.6 ± 1.27 µM
IC50 (mouse lung cancer (LLC1); LLC1, 48 h): 20.3 ± 1.18 µM
Selectivity Index (IC50 mMSC or MRC-5/ IC50 Cancer Cell) (mouse lung cancer (LLC1); LLC1, 48 h): 0.21
IC50 (human lung cancer (A549); A549, 24 h): 55.8 ± 1.83 µM
Selectivity Index (IC50 mMSC or MRC-5/ IC50 Cancer Cell) (human lung cancer (A549); A549, 24 h): 0.68
IC50 (human lung cancer (A549); A549, 48 h): 66.3 ± 1.18 µM
Selectivity Index (IC50 mMSC or MRC-5/ IC50 Cancer Cell) (human lung cancer (A549); A549, 48 h): 0.65
IC50 [2]: 4.22 ± 0.33 µM
tumor growth compared to the untreated group (4T1 mammary tumors; 3 mg/kg i.p.): significantly slower
tumor growth compared to the untreated group (4T1 mammary tumors; 6 mg/kg i.p.): significantly slower
4T1 colony formation (4T1 cells [3]): almost total inhibition
percentage of early apoptotic cells (4T1 cells [4]): No difference
percentage of late apoptotic 4T1 cells (AnnV+/PI+) (4T1 cells [4]): increased
TMRE fluorescence (mitochondrial membrane potential) (4T1 cells [5]): significant decrease
level of intracellular ROS (4T1 cells [5]; 24 h incubation): increased
